US8163526B2, “Ethanol production” (The University of Durham, priority 2006, dated 2012)

Assays:
[1] = test system: Z. mobilis; test: overproduction of proteins in Z. mobilis in response to autoinducer (identified by mass spectrometry); format: cell-based, Zymomonas mobilis; conditions: AI-2 produced in vitro with purified enzymes; 2 cytoplasmic and 3 secreted proteins
From the text: […] Nature 437, […]) to avoid the toxic effects of bacteriocin production, it stimulated Z. mobilis to overproduce at least 5 proteins, 2 which were retained in the cytoplasm and 3 that were secreted. These proteins were not produced when Z. mobilis was co-cultured with the luxS-deletion strain KX1128, which lacks the LuxS enzyme that is responsible for the synthesis of 4,5-dihydroxy-2,3-pentanedione (DPD) from S-ribosylhomocysteine, which spontaneously cyclizes to form the autoinducer molecule Autoinducer-2 (AI-2).
The proteins overproduced in response to AI-2 were identified by mass spectrometry sequencing of tryptic-fragments. The first of the secreted proteins, ZMO1147, was identified as a homologue of the E. coli periplasmic chaperone Skp/HIpA (Walton, T A and Sousa M C (2004) Crystal structure of Skp, a prefoldin-like chaperone that protects soluble and membrane proteins from aggregation. Mol Cell. 15, 367-74). […] In E.coli the yaeT and hlpA genes are clustered. In Z. mobilis, ZMO1147 is clearly transcriptionally linked to ZMO1148, a homologue of yaeT, being directly downstream of ZMO1148, so that they share the same promoter. Consequently, both ZMO1147 and ZMO1148 must be induced by AI-2. […] Clearly, ZMO1147 must have a role above and beyond acting as a periplasmic chaperone. […]

[2] = test system: Z. mobilis cells; test: chromate assay for ethanol production by untreated and AI-2-treated Z. mobilis cells; format: cell-based, Zymomonas mobilis
From the text: The two overproduced cytosolic proteins were identified as enolase, ZMO1608, and pyruvate decarboxylase, ZMO1360 as illustrated in FIG. 2. These are sequential enzymes in the E-D pathway that leads to ethanol production. […] A chromate assay (e.g. 3C2H5OH+4Cr03−>2Cr2O3+3H2O) was used to asses ethanol production, monitoring colour change (e.g. at 600 nm) to determine the ethanol produced.

For Autoinducer-2 [AI-2], the “protein overproduction in Z. mobilis (in words)” value [1] was “over production of the same five proteins”, the medium ethanol concentration ([2]; AI-2-treated Z. mobilis, untreated 9%, FIG. 3) was 14.2% and the “ethanol production (in words)” value ([2]; AI-2-treated vs untreated Z. mobilis cells) was “significant increase in ethanol production”. The “increase in ethanol production” value ([2]; AI-2-treated vs untreated Z. mobilis, average of two experiments, chromate assay, colour change at 600 nm) was 54%.
